One series relates to HCT116 cells. Nature of the series: MTT cell viability assay. Format: cell-based, human. The following applies: for cytotoxic effect (cell viability): HCT116, 20 and 40 µM, 24 h, Figure 2B. As for the experimental part:
(§1) The HT29 and HCT116 cells (human colon cancer), AGS (human gastric cancer), and MIA PaCa-2 cells (human pancreatic cancer) were purchased from Korean Cell Line Bank (Seoul, Korea). Cancer cells were maintained in RPMI (HT29 and AGS) and DMEM (HCT116 and MIA PaCa-2) culture media supplemented with 10% fetal bovine serum (FBS) and 100 U/mL penicillin and streptomycin at 37 °C in a 95% humidified incubator containing 5% CO2. The cytotoxic effect of the compounds was assessed using the MTT cell viability assay. Briefly, 3 × 10^3 cells/well were grown in 96-well plates for 24 h. After treatment with desired concentration of respective compounds for 24 h or 48 h, the EZ-CYTOTOX (10 µM) reagent was added in each well and incubated for 90 min. The absorbance was measured at 450 nm wavelength using Skanlt software 5.0 (Thermo Scientific, Waltham, MA, USA) installed on a Multiskan GO (Thermo Scientific, Waltham, MA, USA) spectrophotometer. Each experiment was independently repeated three times (n = 12).
(In general: Tetrazolium assays rely on reduction of a dye to a coloured formazan, in cell work by metabolically active cells.)

The test system of series [1] is HT29 cells. Nature of the series: MTT cell viability assay. It counts as cell-based, human. The following applies: HT29, 20 and 40 µM, 24 h, Figure 2A. As for the experimental part: as §1
Another series addresses T1, SK1 enzyme (Homo sapiens, UniProt Q9NYA1).
T1 construct: purchased Thermo Fisher Scientific
Nature of the series: SK activity assay (Adapta screening system). Format: biochemical. The following applies: 20 μM, Figure 5. The method, then:
The effect of compounds in sphingosine kinase activity was examined using the […] screening system (Thermo Fisher Scientific System, Waltham, MA, USA). The kinase inhibition ability of compounds 1-11 along with RB005 was measured with final concentration of 20 μM. […] The data were presented as percentage inhibition of SK enzyme by individual compounds.

Another series addresses CYP2C19 (Homo sapiens, UniProt P33261). Nature of the series: Inhibition of CYP enzymes activity, human liver microsomes. The following applies: human liver microsomes 0.25 mg/mL, 10 μM, S-mephenytoin substrate. In general terms: Liver microsomes are vesicles of endoplasmic reticulum, rich in cytochrome P450 enzymes.
The target in another series is CYP2C9 (Homo sapiens, UniProt P11712). Described as above. The following applies: human liver microsomes 0.25 mg/mL, 10 μM, diclofenac substrate.
Another series addresses T2, CYP1A2 (Homo sapiens, UniProt P05177).
T2 sequence (P05177 1-516): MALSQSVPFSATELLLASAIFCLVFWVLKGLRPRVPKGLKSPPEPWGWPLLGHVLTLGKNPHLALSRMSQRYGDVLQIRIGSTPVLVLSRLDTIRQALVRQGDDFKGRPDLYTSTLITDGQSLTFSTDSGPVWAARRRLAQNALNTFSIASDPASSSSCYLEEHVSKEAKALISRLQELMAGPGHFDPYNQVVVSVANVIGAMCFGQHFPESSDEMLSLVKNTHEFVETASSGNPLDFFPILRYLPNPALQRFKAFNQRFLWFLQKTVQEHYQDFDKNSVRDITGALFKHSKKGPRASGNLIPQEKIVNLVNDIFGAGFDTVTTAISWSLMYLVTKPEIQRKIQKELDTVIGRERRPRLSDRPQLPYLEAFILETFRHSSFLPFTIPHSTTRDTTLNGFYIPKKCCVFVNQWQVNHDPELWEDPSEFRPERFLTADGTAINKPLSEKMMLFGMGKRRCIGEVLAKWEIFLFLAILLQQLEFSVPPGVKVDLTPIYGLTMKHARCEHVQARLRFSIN
Described as above. The following applies: human liver microsomes 0.25 mg/mL, 10 μM, phenacetin substrate.

Series [2] concerns HT29 cells. Nature of the series: Annexin V-FITC/PI staining, flow cytometry. The following applies: HT29, 10 and/or 20 µM, 24 h. Format: cell-based, human. As for the experimental part:
After treating HT29 and HCT116 cells with compounds 10, 11, 13 and FTY720 according to the manufacturer’s instruction, the annexin V and PI staining technique was employed to determine apoptosis in the cells. Briefly, cells (2.5 × 10^5 cells/well) were seeded in 12-well plates and treated with 10 and/or 20 µM of compounds for 24 h. Cells were collected using trypsin-EDTA and stained with annexin V-FITC dye for 15 min at room temperature, followed by PI staining for 20 min and analyzed by flow cytometer (MACSQuant Analyzer 10; Miltenyi Biotec, Bergisch Gladbach, Germany). The data was analyzed using MACSQuantify^TM version 2.8 software (Miltenyi Biotec, Bergisch Gladbach, Germany) and presented as early apoptosis, late apoptosis, or combined apoptosis percentage. Each experiment was repeated three times independently (n = 6).
On the technique in general: In flow cytometry, cells or beads pass a laser one at a time.

Series [3] deals with AKT and ERK phosphorylation in HCT116 cells. Nature of the series: Western blotting of pAKT and pERK. It counts as cell-based, human. The following applies: HCT116, 20 µM. As for the experimental part: The cell lysate was prepared after successive treatment using mammalian protein extraction buffer (Organic buffer + 10 mM NaCl + detergent pH 7.5) mixed with 1% protease/phosphatase inhibitor cocktail; protein was quantified with BCA assay, boiled at 95 °C for 10 min by adding sample loading buffer, separated using SDS-PAGE, and transferred into methanol-activated PVDF membrane. Primary antibodies were probed overnight in PVDF membrane at 4 °C and […] with subsequent HRP anti-mouse and anti-rabbit secondary antibodies at room temperature. Then, membranes were washed with TBST buffer, and images were detected by Amersham Imager 680 (GE Healthcare; Leiden, WZ, The Netherlands) using ECL solution. Band intensities were analyzed and quantified using Image J software (version 1.53i).

Another series has as its target T3, PP2A in HCT116 cells (Homo sapiens, UniProt P67775).
T3 construct: endogenous in cells; host or cells: HCT116
Description: PP2A activity assay (immunoprecipitation kit). Format: cell-based. The following applies: for PP2A activity (activation): HCT116, 20 µM, 24 h. As for the experimental part: The activity of PP2A was measured by using the PP2A kit according to the manufacturer’s instruction. The cell lysate was incubated with anti PP2A, C subunit antibody, and protein A agarose slurry for 2 h at 4 °C. The phosphopeptide solution (60 µL) was mixed and incubated at 30 °C for 10 min in a shaker. After a brief centrifuge, a 25 µL sample was liquated in ½ volume microplate and 100 µL malachite green phosphate detection working solution was added. After color development, absorbance was taken at 650 nm in a Multiskan GO microplate reader. A phosphate standard curve was constructed using phosphate standard, and results were calculated using this standard curve. This experiment was repeated three times (n = 6).

In a further series the test system is SK2. The following applies: Figure 1, cited from earlier work; for pIC50: known compounds.
Another series relates to SK1. The following applies: known compounds, Figure 1; cited from earlier work.
The next series addresses CYP2D6 (Homo sapiens, UniProt P10635). Description: Inhibition of CYP enzymes activity, human liver microsomes. The following applies: human liver microsomes 0.25 mg/mL, 10 μM, dextromethorphan substrate.
A short description of series [4]: In vitro metabolic stability in liver microsomes.
The nature of series [5]: In vitro metabolic stability in liver microsomes. Format: in vitro ADME, rat.
Series [6] in a line: In vitro metabolic stability in liver microsomes. Format: in vitro ADME, mouse.
[7] abbreviates: % remaining after 30 min, NADPH.

SMILES strings stand for the structures. pIC50, pKi: −log10 of the molar value. “Also recorded” adds a separate entry of the source. Some results are limits rather than exact numbers.

This is an account of results in PMC8779255, “Determining the Anticancer Activity of Sphingosine Kinase Inhibitors Containing Heteroatoms in Their Tail Structure” (Pharmaceutics, 2022).

T3 sequence (P67775 whole entry): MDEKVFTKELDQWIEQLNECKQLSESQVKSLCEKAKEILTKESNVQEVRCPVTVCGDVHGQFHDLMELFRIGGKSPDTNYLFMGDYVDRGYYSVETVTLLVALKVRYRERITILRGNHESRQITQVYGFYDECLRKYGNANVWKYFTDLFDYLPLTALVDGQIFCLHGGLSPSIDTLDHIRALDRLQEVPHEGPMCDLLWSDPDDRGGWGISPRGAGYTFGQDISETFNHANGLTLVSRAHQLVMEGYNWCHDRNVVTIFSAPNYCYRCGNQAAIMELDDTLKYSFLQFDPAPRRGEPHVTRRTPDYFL
T1 sequence (Q9NYA1 whole entry): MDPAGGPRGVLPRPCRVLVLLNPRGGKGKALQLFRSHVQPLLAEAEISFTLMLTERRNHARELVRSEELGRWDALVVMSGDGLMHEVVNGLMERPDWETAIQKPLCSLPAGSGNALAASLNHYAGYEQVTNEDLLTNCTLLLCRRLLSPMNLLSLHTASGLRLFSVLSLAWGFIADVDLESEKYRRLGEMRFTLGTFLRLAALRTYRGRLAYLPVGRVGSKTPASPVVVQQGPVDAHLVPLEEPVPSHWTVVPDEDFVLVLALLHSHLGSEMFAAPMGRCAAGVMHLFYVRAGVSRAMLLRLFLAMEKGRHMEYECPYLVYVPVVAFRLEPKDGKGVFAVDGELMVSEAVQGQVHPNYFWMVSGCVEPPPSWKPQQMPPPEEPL
Chain of CYP2C9 (P11712 whole entry): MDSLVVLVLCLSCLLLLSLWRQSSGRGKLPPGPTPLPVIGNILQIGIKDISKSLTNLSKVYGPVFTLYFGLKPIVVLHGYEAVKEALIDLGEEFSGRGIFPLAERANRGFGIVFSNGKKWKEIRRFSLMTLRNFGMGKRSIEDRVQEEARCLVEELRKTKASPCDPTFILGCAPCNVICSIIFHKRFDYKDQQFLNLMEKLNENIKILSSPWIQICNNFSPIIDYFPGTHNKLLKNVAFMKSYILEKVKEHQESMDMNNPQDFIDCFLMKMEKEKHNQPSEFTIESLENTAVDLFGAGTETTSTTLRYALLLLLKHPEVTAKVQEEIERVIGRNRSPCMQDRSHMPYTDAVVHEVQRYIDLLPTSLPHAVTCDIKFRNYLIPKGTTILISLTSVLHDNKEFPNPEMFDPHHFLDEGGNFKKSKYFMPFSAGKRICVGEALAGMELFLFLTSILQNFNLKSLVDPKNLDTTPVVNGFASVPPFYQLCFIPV
Chain of CYP2C19 (P33261 whole entry): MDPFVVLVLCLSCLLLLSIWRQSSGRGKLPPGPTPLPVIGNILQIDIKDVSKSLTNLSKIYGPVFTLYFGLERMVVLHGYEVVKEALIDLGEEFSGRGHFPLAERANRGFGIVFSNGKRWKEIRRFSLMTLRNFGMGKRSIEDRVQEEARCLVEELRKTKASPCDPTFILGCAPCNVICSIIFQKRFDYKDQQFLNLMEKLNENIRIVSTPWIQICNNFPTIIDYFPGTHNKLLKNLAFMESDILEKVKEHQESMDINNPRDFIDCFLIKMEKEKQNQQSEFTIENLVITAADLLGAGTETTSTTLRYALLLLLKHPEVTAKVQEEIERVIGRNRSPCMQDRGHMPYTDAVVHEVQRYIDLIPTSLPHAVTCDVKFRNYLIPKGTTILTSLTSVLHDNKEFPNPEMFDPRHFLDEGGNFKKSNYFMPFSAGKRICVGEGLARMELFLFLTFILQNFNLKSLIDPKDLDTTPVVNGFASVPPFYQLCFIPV
Chain of CYP2D6 (P10635 whole entry): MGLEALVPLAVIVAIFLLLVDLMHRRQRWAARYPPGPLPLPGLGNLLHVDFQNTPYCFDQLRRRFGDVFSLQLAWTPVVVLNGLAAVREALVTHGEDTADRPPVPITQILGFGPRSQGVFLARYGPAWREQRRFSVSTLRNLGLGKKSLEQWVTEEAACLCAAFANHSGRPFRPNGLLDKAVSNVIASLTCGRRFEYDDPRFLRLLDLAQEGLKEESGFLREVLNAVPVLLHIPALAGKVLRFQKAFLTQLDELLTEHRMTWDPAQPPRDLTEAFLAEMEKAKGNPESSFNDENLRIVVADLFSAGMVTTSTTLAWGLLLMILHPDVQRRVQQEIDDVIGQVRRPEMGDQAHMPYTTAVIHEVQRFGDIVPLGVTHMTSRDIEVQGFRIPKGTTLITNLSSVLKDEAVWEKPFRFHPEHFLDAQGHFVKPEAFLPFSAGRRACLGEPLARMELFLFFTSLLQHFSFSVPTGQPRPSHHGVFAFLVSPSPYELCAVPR

In the case of `CCCCCCCOc1ccc(CCN2CCC[C@@H]2CO)cc1` [Compound 1, (R)-(1-(4-(Heptyloxy)phenethyl)pyrrolidin-2-yl)methanol], the “cytotoxic effect (cell viability)” value with HCT116 cells was “significant cytotoxic effects in both 20 and 40 µM concentrations”; in the series with HT29 cells [1], “more cytotoxic than RB005 and 5-FU”. In addition, on SK1 enzyme, the SK1 inhibitory effect result was “highest SK1 inhibitory effect”.

Turning to `CCCCCCCOc1ccc(CCN2CCCCC2)cc1` [Compound 2, 1-(4-(Heptyloxy)phenethyl)piperidine], the “cytotoxic effect (cell viability)” value in the series on HCT116 cells is “significant cytotoxic effects in both 20 and 40 µM concentrations”; in the series with HT29 cells [1], “more cytotoxic than RB005 and 5-FU”.

Turning to `CC(=O)N1CCN(c2ccc(OCC3COC(Cn4ccnc4)(c4ccc(Cl)cc4Cl)O3)cc2)CC1` (stereo not shown) [Ketoconazole], the “CYP2C19 activity (% of control activity)” value at CYP2C19 was >100%. Moreover, the “CYP2C9 activity (% of control activity)” value at CYP2C9 was >100%. For the same compound, the “CYP1A2 activity (% of control activity)” value at CYP1A2 was >100%.

In the case of `CCCCCCCOc1ccc(CCN2CCC[C@H]2CO)cc1` [Compound 5, (S)-(1-(4-(Heptyloxy)phenethyl)pyrrolidin-2-yl)methanol], in the series with HCT116 cells, the “cytotoxic effect (cell viability)” value is “only 40 µM concentration of compounds 3, 5 and 9 shows significant cytotoxic effect”.

As for `O=S(=O)(Oc1ccc(CCN2CCC(O)CC2)cc1)c1ccccc1` [Compound 13, 4-(2-(4-Hydroxypiperidin-1-yl)ethyl)phenyl benzenesulfonate], the “apoptosis (annexin V assay)” value in the series with HT29 cells [2] is given as “did not significantly induce apoptosis”. For the same compound, the “selectivity to SK1 (over SK2)” value on SK1 enzyme is reported as “more selectivity than RB005”. For the same compound, in [3], the “phosphorylation of AKT and ERK” value was “did not decrease phosphorylation of AKT and ERK”. Also, the “PP2A activity (activation)” value on PP2A in HCT116 cells was “no effect on PP2A activation; also recorded: did not increase PP2A activity”.

With `O=S(=O)(Oc1ccc(CCN2CCC[C@@H]2CO)cc1)c1ccccc1` [Compound 11, (R)-4-(2-(2-(Hydroxymethyl)pyrrolidin-1-yl)ethyl)phenyl benzenesulfonate], the “apoptosis (annexin V assay)” value with HT29 cells [2] was “did not significantly induce apoptosis”. For the same compound, at SK1 enzyme, the SK1 inhibitory effect result is on record as “three-fold higher SK1 inhibitory effect than RB005” and the “selectivity to SK1 (over SK2)” value is “more selectivity than RB005”. For the same compound, the “phosphorylation of AKT and ERK” value in series [3] was “did not decrease phosphorylation of AKT and ERK”. On PP2A in HCT116 cells, the “PP2A activity (activation)” value is reported as “no effect on PP2A activation; also recorded: did not increase PP2A activity”.

For the compound `CCCCCCCCc1ccc(CCN2CCC(O)CC2)cc1` [RB005, reference compound], the “cytotoxic effect, comparison” value in the series on HCT116 cells (HCT116, 10, 20 and 40 µM, Supplementary Figure S1C) was “higher than compounds 11, 13, and PF-543”. This compound had a PP2A activity increase on PP2A in HCT116 cells (HCT116, 24 h, 20 µM of compounds 10, 11 and 13, vs nontreated control cells) of 1.59 fold.

Regarding `CCCCCCCOc1ccc(CCN2CCNCC2)cc1` [Compound 9, 1-(4-(Heptyloxy)phenethyl)piperazine], the “cytotoxic effect (cell viability)” value in the series with HCT116 cells is “only 40 µM concentration of compounds 3, 5 and 9 shows significant cytotoxic effect”; in the series with HT29 cells [1], “more cytotoxic than RB005 and 5-FU”.

For `CCCCCCCOc1ccc(CCN2CCC(C)CC2)cc1` [Compound 7, 1-(4-(Heptyloxy)phenethyl)-4-methylpiperidine], in the series with HCT116 cells, the “cytotoxic effect (cell viability)” value is “significant cytotoxic effects in both 20 and 40 µM concentrations”.

With `CCCCCCCOc1ccc(CCN2CCCC(CO)C2)cc1` (stereo not shown) [Compound 8, (1-(4-(Heptyloxy)phenethyl)piperidin-3-yl)methanol], the “cytotoxic effect (cell viability)” value in the series with HCT116 cells was “significant cytotoxic effects in both 20 and 40 µM concentrations”; with HT29 cells [1], “more cytotoxic than RB005 and 5-FU”.

By pIC50 is commonly meant the IC50 on a negative log10 scale, so that one unit is a factor of ten. For `O=C(NCc1ccncc1)C12CC3CC(C1)CC(c1ccc(Cl)cc1)(C3)C2` [ABC294640], the figures for the pIC50 in the series with SK2 and in the series on SK1 were ~4.22 and < 4.00, respectively.

As to `CCCCCCCOc1ccc(CCN2CCC(CO)CC2)cc1` [Compound 6, (1-(4-(Heptyloxy)phenethyl)piperidin-4-yl)methanol], the “cytotoxic effect (cell viability)” value is “significant cytotoxic effects in both 20 and 40 µM concentrations” with HCT116 cells; “more cytotoxic than RB005 and 5-FU” in the series with HT29 cells [1].

Take `Cc1cc(CS(=O)(=O)c2ccccc2)cc(OCc2ccc(CN3CCC[C@@H]3CO)cc2)c1` [PF-543]: the “CYP2D6 activity (% of control activity)” value at CYP2D6 amounted to 63.9%. Also, the “liver microsomal stability, Human (%)” value in series [4] (% remaining after 30 min, 0.5 mg/mL microsomes, NADPH) came out at 13.5%. Besides, the “liver microsomal stability (in words)” value in series [4] (human), in series [5] (rat) and in series [6] (mouse) was “unstable” in each case. The “liver microsomal stability, Rat (%)” value in series [5] (setting [7]) stood at 8.1%. The “liver microsomal stability, Mouse (%)” value in series [6] (setting [7]) amounted to 6.5%. The “CYP1A2 activity (% of control activity)” value at CYP1A2 was found to be 80.9%.

Broadly, the pKi is the Ki on a negative log10 scale, so that one unit is a factor of ten. In the case of `CCCCCCCCOc1ccc(-c2noc([C@@H]3CCCN3C(=N)N)n2)cc1C(F)(F)F` [SLM6041434], the pKi at SK2 (known compound) was 5.96 to 6.40.

For the compound `CCCCOc1ccc(CCC=C2SC(=O)N(CCN)C2=O)cc1` [Compound K145], the pIC50 in the series on SK2 was 5.37; with SK1 it was < 5.00.
